For assay [1], the system named is PC-3. Nature of the assay: Cytotoxicity against human PC3 cells at 5 uM after 48 hrs by MTT assay relative to control. It is filed as functional.
The subject of assay [2] is PC-3. Nature of the assay: Cytotoxicity against human PC3 cells at 25 uM after 48 hrs by MTT assay relative to control. The class given is functional.
In assay [3] the test system is PC-3. Put plainly: Growth inhibition of human PC3 cells after 48 hrs by MTT assay. It is filed as functional, cell-based. To be noted: PC-3, 48 h.

Structures are written as SMILES.

For the compound `O=C(c1ccc(O)cc1O)[C@H]1[C@H](C(=O)c2ccc(O)cc2O)[C@@H](c2ccccc2)[C@@H]1c1ccccc1`, the figures for the Activity in assay [1] and in assay [2] were 49.7% and 97.6%, respectively. The compound also showed an IC50 in assay [3] of 3.5 µM.
In the case of `O=C(/C=C/c1ccccc1)c1ccc(O)cc1O` [2',4'-DIHYDROXYCHALCONE], the Activity worked out at 16.6% in assay [1] and 66.2% in assay [2].
Taken in the same sequence, the figures for `O=C(c1ccc(O)cc1O)[C@@H]1[C@@H](C(=O)c2ccc(O)cc2O)[C@H](c2ccccc2)[C@@H]1c1ccccc1` were 29% and 75.5%.
For the compound `O=C(c1ccc(O)cc1O)[C@@H]1[C@H](C(=O)c2ccc(O)cc2O)[C@@H](c2ccccc2)[C@H]1c1ccccc1`, the Activity worked out at 27.1% in assay [1] and 78.8% in assay [2].
Consider `O=C(c1ccc(O)cc1O)[C@@H]1Cc2ccccc2[C@H](C(=O)c2ccc(O)cc2O)[C@@H]1c1ccccc1`, for which the Activity in assay [1] is recorded as 22.3%; in assay [2] it was 73.4%.
In the case of `O=C(c1ccc(O)cc1O)[C@H]1[C@H](c2ccccc2)[C@H](C(=O)c2ccc(O)cc2O)[C@@H]1c1ccccc1`, the Activity turned out to be 12.3% in assay [1] and 57.9% in assay [2].
For the compound `O=C(c1ccc(O)cc1O)[C@H]1[C@H](c2ccccc2)[C@H](C(=O)c2ccc(O)cc2O)[C@H]1c1ccccc1`, the Activity was found to be 29.6% in assay [1] and 88% in assay [2].
On to `O=C(c1ccc(O)cc1O)[C@H]1Cc2ccccc2[C@@H](C(=O)c2ccc(O)cc2O)[C@H]1c1ccccc1`, for which the Activity was determined as 46.1% in assay [1] and 86.3% in assay [2].
`O=C(c1ccc(O)cc1O)[C@@H]1[C@@H](C(=O)c2ccc(O)cc2O)[C@H](c2ccccc2)[C@H]1c1ccccc1`: the Activity in assay [1] worked out at 41.2%; in assay [2] it was 96.3%. In assay [3], this compound gave a half-maximal inhibitory concentration (IC50) of 3.8 µM.
Regarding `O=C(c1ccc(O)cc1O)[C@H]1[C@H](C(=O)c2ccc(O)cc2O)[C@H](c2ccccc2)[C@@H]1c1ccccc1`, the Activity in assay [1] was 30.7%; in assay [2], 87.6%.
For the compound `O=C(c1ccc(O)cc1O)[C@H]1[C@H](c2ccccc2)[C@@H](C(=O)c2ccc(O)cc2O)[C@@H]1c1ccccc1`, the Activity was 12.8% in assay [1] and 76.7% in assay [2].

Source of the values: ChEMBL document CHEMBL4138289, “Structurally Diverse Cytotoxic Dimeric Chalcones from Oxytropis chiliophylla” (J Nat Prod, 2018).
